Source: PubChem BioAssay AID2060883 (Molecular Pharmacology Branch, DTP, NCI, 2025)
pIC50: −log10 of the molar value.

System: 843782-103-R-J1-PDC complex spheroid viability
Assay: Anticancer human tumor 843782-103-R-J1-PDC patient-derived lung adenocarcinoma cell line growth inhibition [RAS]
Conditions: for viability, T/C: stronger effect = lower value
In short: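 Multi-cell-type spheroids: tumor cells plus HUVEC endothelial cells and mesenchymal stem cells. RAS-pathway inhibitors were combined with targeted agents, each dosed in half-log steps down from clinical Cmax, or from 10 microM when Cmax was unknown.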

[1] = curve of first compound, second compound 0.0316 µM
[2] = curve of first compound, second compound 0.1 µM
[3] = curve of first compound, second compound 0.316 µM
[4] = curve of first compound, second compound 1 µM
[5] = second compound 0.0316 µM, first compound 0.0316 µM
[6] = second compound 0.0316 µM, first compound 0.1 µM
[7] = second compound 0.0316 µM, first compound 0.316 µM
[8] = second compound 0.0316 µM, first compound 1 µM
[9] = second compound 0.1 µM, first compound 0.0316 µM
[10] = second compound 0.1 µM, first compound 0.1 µM
[11] = second compound 0.1 µM, first compound 0.316 µM
[12] = second compound 0.1 µM, first compound 1 µM
[13] = second compound 0.316 µM, first compound 0.0316 µM
[14] = second compound 0.316 µM, first compound 0.1 µM
[15] = second compound 0.316 µM, first compound 0.316 µM
[16] = second compound 0.316 µM, first compound 1 µM
[17] = second compound 1 µM, first compound 0.0316 µM
[18] = second compound 1 µM, first compound 0.1 µM
[19] = second compound 1 µM, first compound 0.316 µM
[20] = second compound 1 µM, first compound 1 µM
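Further: viability read after seven days of compound exposure.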

Structure (SMILES): CC(Nc1ccc2c(c1)OCCn1cc(N3C(=O)OCC3C(F)F)nc1-2)C(N)=O (stereo not given) + C=CC(=O)N1CCN(c2nc(OCC3CCCN3C)nc3c(F)c(-c4nc(N)cc(C)c4C(F)(F)F)c(Cl)cc23)C(C)C1
- pIC50 (curve of first compound, second compound 0.00316 µM): 6.89
- pIC50 (curve of first compound, second compound 0.01 µM): 7.03
- pIC50 [1]: 7.02
- pIC50 [2]: 6.88
- pIC50 [3]: 6.94
- pIC50 [4]: 6.93
- viability, T/C (second compound 0.00316 µM, first compound 0.0316 µM): 78.7%
- viability, T/C (second compound 0.00316 µM, first compound 0.1 µM): 51.4%
- viability, T/C (second compound 0.00316 µM, first compound 0.316 µM): 38%
- viability, T/C (second compound 0.00316 µM, first compound 1 µM): 24.7%
- viability, T/C (second compound 0.00316 µM, first compound 3.16 µM): 17.9%
- viability, T/C (second compound 0.00316 µM, first compound 10 µM): 9.53%
- viability, T/C (second compound 0.01 µM, first compound 0.0316 µM): 69%
- viability, T/C (second compound 0.01 µM, first compound 0.1 µM): 49.3%
- viability, T/C (second compound 0.01 µM, first compound 0.316 µM): 32.3%
- viability, T/C (second compound 0.01 µM, first compound 1 µM): 25.1%
- viability, T/C (second compound 0.01 µM, first compound 3.16 µM): 19.7%
- viability, T/C (second compound 0.01 µM, first compound 10 µM): 10.9%
- viability, T/C [5]: 69.3%
- viability, T/C [6]: 49.5%
- viability, T/C [7]: 33.6%
- viability, T/C [8]: 23.1%
- viability, T/C (second compound 0.0316 µM, first compound 3.16 µM): 20.4%
- viability, T/C (second compound 0.0316 µM, first compound 10 µM): 9.06%
- viability, T/C [9]: 67.8%
- viability, T/C [10]: 57.8%
- viability, T/C [11]: 30%
- viability, T/C [12]: 23.1%
- viability, T/C (second compound 0.1 µM, first compound 3.16 µM): 15.4%
- viability, T/C (second compound 0.1 µM, first compound 10 µM): 10.2%
- viability, T/C [13]: 65.7%
- viability, T/C [14]: 54.2%
- viability, T/C [15]: 33.5%
- viability, T/C [16]: 24.3%
- viability, T/C (second compound 0.316 µM, first compound 3.16 µM): 17.4%
- viability, T/C (second compound 0.316 µM, first compound 10 µM): 8.73%
- viability, T/C [17]: 74.3%
- viability, T/C [18]: 45.4%
- viability, T/C [19]: 40.6%
- viability, T/C [20]: 26.5%
- viability, T/C (second compound 1 µM, first compound 3.16 µM): 17.9%
- viability, T/C (second compound 1 µM, first compound 10 µM): 8.86%

Structure (SMILES): O=C(c1ccc(F)c(F)c1Nc1ccc(I)cc1F)N1CC(O)([C@@H]2CCCCN2)C1 + C#Cc1c(F)ccc2cc(O)cc(-c3ncc4c(N5CC6CCC(C5)N6)nc(OCC56CCCN5CC(F)C6)nc4c3F)c12
- pIC50 [1]: 6.54
- pIC50 [2]: 6.64
- pIC50 [3]: 6.64
- pIC50 [4]: 6.89
- pIC50 (curve of first compound, second compound 3.16 µM): 7.45
- pIC50 (curve of first compound, second compound 10 µM): 8.20
- viability, T/C (second compound 0.0316 µM, first compound 0.00316 µM): 107%
- viability, T/C (second compound 0.0316 µM, first compound 0.01 µM): 94.2%
- viability, T/C [5]: 92.5%
- viability, T/C [6]: 84.1%
- viability, T/C [7]: 45.9%
- viability, T/C [8]: 20%
- viability, T/C (second compound 0.1 µM, first compound 0.00316 µM): 107%
- viability, T/C (second compound 0.1 µM, first compound 0.01 µM): 104%
- viability, T/C [9]: 89.5%
- viability, T/C [10]: 74%
- viability, T/C [11]: 39.4%
- viability, T/C [12]: 27.7%
- viability, T/C (second compound 0.316 µM, first compound 0.00316 µM): 102%
- viability, T/C (second compound 0.316 µM, first compound 0.01 µM): 90.7%
- viability, T/C [13]: 89.1%
- viability, T/C [14]: 75.5%
- viability, T/C [15]: 39.6%
- viability, T/C [16]: 22.3%
- viability, T/C (second compound 1 µM, first compound 0.00316 µM): 96%
- viability, T/C (second compound 1 µM, first compound 0.01 µM): 95.4%
- viability, T/C [17]: 81.8%
- viability, T/C [18]: 56.6%
- viability, T/C [19]: 28.9%
- viability, T/C [20]: 19.7%
- viability, T/C (second compound 3.16 µM, first compound 0.00316 µM): 81.5%
- viability, T/C (second compound 3.16 µM, first compound 0.01 µM): 65.7%
- viability, T/C (second compound 3.16 µM, first compound 0.0316 µM): 53.8%
- viability, T/C (second compound 3.16 µM, first compound 0.1 µM): 34.9%
- viability, T/C (second compound 3.16 µM, first compound 0.316 µM): 26.4%
- viability, T/C (second compound 3.16 µM, first compound 1 µM): 18.4%
- viability, T/C (second compound 10 µM, first compound 0.00316 µM): 56.3%
- viability, T/C (second compound 10 µM, first compound 0.01 µM): 46.5%
- viability, T/C (second compound 10 µM, first compound 0.0316 µM): 34.5%
- viability, T/C (second compound 10 µM, first compound 0.1 µM): 26.9%
- viability, T/C (second compound 10 µM, first compound 0.316 µM): 19.2%
- viability, T/C (second compound 10 µM, first compound 1 µM): 14%

Structure (SMILES): C=CC(=O)N1CCN(c2nc(OCC3CCCN3C)nc3c(F)c(-c4nc(N)cc(C)c4C(F)(F)F)c(Cl)cc23)C(C)C1 (stereo not given)
- viability, T/C (compound 0.00316 µM): 89.6% [middle of 12 runs]
- viability, T/C (compound 0.0316 µM): 86.8% [middle of 12 runs]
- viability, T/C (compound 0.316 µM): 85.5% [middle of 12 runs]
- viability, T/C (compound 1 µM): 86% [middle of 12 runs]
- pIC50 (compound alone, run of 09/09/2024): < 6.00
- pIC50 (curve of compound): < 6.00
